Experimental data taken from publication PMC12305494, “Discovery of PXR Antagonist MI891 and PXR Degrader MI1013 and Their Roles in Hepatic Gene Regulation” (Journal of Medicinal Chemistry, 2025).
Residue numbers refer to the chain shown, from its start.

How the values were obtained:
CAR3 variant = target: T1, CAR3 variant (Homo sapiens, UniProt Q14994, DEL233-236); test: CAR3 variant luciferase reporter assay; assay type: cell-based; conditions: at concentrations up to 10 μM
T1 construct: expressed in transfected cells
T1 sequence (Q14994 with tags, fused parts or gaps isoform Q14994-8 DEL233-236): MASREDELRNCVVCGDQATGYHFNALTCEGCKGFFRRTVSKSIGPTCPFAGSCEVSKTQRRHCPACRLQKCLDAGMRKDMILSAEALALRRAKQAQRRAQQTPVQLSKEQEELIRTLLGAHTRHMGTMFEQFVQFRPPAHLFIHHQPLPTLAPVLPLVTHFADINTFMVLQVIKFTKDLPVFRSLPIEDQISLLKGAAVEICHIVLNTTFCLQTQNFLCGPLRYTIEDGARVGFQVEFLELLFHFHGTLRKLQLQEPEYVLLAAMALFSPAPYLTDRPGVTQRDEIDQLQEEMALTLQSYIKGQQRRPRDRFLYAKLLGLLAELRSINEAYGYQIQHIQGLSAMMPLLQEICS
T1 sequence (P19793 whole entry partner): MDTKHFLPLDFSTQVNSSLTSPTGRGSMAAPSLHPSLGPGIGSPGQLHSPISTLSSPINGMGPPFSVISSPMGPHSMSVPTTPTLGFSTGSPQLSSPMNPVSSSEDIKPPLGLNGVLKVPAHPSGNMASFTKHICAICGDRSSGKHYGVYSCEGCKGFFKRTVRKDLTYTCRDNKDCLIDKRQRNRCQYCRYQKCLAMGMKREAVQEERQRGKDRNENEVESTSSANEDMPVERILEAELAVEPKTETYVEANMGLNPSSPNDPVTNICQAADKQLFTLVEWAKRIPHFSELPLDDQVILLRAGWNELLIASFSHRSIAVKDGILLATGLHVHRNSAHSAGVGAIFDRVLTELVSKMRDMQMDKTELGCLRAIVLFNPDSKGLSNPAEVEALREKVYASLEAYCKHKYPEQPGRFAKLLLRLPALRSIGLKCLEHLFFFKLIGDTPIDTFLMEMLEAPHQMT
Protocol: Rhesus monkey, mouse, and rat PXR expression vectors (100 ng/well each) were also obtained from GenScript. […] Carlberg (University of Kuopio, Kuopio, Finland).
The cells were cultured in DMEM medium (Merck) supplemented with 10% fetal bovine serum.

wild-type PXR LBD = target: T2, wild-type PXR LBD (Homo sapiens, UniProt O75469); test: Mammalian two-hybrid assay, wt-PXR LBD with SRC-1-VP16 in HepG2; assay type: cell-based; conditions: MI891 at 10 μM
T2 construct: HepG2 cells were cotransfected with a GAL4-hPXR LBD construct and pSCR1-VP16 construct; expressed in transfected cells; host or cells: HepG2
T2 sequence (O75469 146-433 limits assumed): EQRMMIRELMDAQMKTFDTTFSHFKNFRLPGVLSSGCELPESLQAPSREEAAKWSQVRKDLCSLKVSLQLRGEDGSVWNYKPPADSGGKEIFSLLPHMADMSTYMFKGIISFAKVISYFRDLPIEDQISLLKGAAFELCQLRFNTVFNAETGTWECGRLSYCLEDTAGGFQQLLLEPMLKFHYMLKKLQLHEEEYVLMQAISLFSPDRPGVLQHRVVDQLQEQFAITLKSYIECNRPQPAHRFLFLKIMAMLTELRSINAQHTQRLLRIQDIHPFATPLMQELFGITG
Source text: (§1) Additionally, the GAL4-PXR-LBD triple mutants (S247W/C284W/S208W) construct and wild-type GAL4-wtPXR vector were used for PXR LBD mutant functional two-hybrid assay as we described before. In the mammalian two-hybrid assay, HepG2 cells were cotransfected with a GAL4-hPXR LBD construct and pSCR1-VP16 construct. Renilla luciferase vector was used for the normalization of firefly luciferase activity to Renilla luciferase activity.

HepG2 cells = test: CellTiter-Glo cytotoxicity assay, HepG2; assay type: cell-based, human; conditions: 24 h
Protocol: (§2) For the cytotoxicity assays involving HepG2, COS-1, and HK-2 cell lines, serial dilutions of MI891 or MI1013 were added to white 96-well tissue culture-treated plates containing these cell lines. After incubating the plates for 24 h at 37 °C, cytotoxicity was assessed using the CellTiter-Glo luminescent cell viability assay (Promega). The luminescence signal was measured with a Synergy2 plate reader (BioTek, Winooski, Vermont, USA) and presented as a relative change compared to the vehicle (DMSO, 0.1%) control, which was set at 100%.

COS-1 cells = test: CellTiter-Glo cytotoxicity assay, COS-1; assay type: cell-based, monkey; conditions: 24 h
Protocol: as §2

[1] = target: T3, triple mutant (S208W/S247W/C284W) PXR LBD (Homo sapiens, UniProt O75469, C284W/S208W/S247W); test: Mammalian two-hybrid assay, obstructed triple mutant PXR LBD with SRC-1-VP16 in HepG2; assay type: cell-based
T3 construct: the GAL4-PXR-LBD triple mutants (S247W/C284W/S208W) construct; expressed in transfected cells; host or cells: HepG2
T3 sequence (O75469 146-433 S208W/S247W/C284W limits assumed): T2 sequence (O75469 146-433 limits assumed) with S63W, S102W, C139W
Source text: as §1

HepaRG cells = test: RT-qPCR gene expression in differentiated HepaRG cells; assay type: cell-based, human; conditions: 48 h
Protocol: HepaRG cells (Sigma-Aldrich/Merck) were cultivated and differentiated on 12-well plates. Seeded at 26,600 cells/cm^2, they were maintained in William’s medium with supplements. After 14 days, differentiation into hepatocyte-like cells was induced using 1.5% DMSO for another 14 days.
RT-qPCR was utilized to investigate gene expression in HepaRG and PHH. Total RNA was extracted from these cells using the phenol–chloroform method. The concentration of the isolated RNA was then measured using a Nanodrop 1000 spectro-photometer (Thermo Fisher Scientific).
Following RNA isolation, reverse transcription was performed to convert RNA into complementary DNA (cDNA). This step was carried out using the High-capacity cDNA reverse transcription kit (Cat. No. 4374966, ThermoFisher Scientific). The resulting cDNA served as the template for subsequent qPCR reactions.
The qPCR reactions were conducted on the QuantStudio 6 Flex Real-Time PCR System (ThermoFisher Scientific, Waltham, Mas-sachusetts). For these reactions, TaqMan Universal master mix II (Cat. No. 4440047, ThermoFisher Scientific) and TaqMan assays (FAM) utilized in this study are detailed in the Supporting Information. To quantify gene expression, the cycle threshold (Ct) values of the target genes were normalized to the Ct values of reference genes HPRT1 or GAPDH (HepaRG) or TBP (PHH). The normalized values were then expressed as fold changes (2−ΔΔCt) relative to the DMSO control at the specified time points, with the control set as 1.

LXRα = target: T4, LXRα (Homo sapiens, UniProt Q13133); test: LXRα luciferase reporter assay, agonistic and antagonistic setups; assay type: cell-based; conditions: prototype ligand GW3965
T4 construct: expressed in transfected cells
T4 sequence (Q13133 209-447 limits assumed): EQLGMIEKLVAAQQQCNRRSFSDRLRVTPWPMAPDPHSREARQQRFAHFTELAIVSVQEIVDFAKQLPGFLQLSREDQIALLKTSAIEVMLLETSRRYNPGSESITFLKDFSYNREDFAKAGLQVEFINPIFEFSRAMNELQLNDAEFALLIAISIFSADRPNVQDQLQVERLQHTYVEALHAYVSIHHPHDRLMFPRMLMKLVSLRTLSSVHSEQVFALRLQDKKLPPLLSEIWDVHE
Protocol: For the farnesoid X receptor (FXR) luciferase gene reporter assay, the full-length expression vector was paired with pFXRE-luc luciferase construct. The p1A1-luc construct was used in the aryl hydrocarbon receptor (AhR) assays with pRL-TK for normalization. Gal4-LXR-α/β, and Gal4-PPAR-γ constructs were used with the pGAL4 UAS-luc construct. For the VDR assay, expression vector pSG5-hVDR together with pVDRE-luc constructs was used. Firefly and Renilla luciferase activities were analyzed using a Dual reporter assay (Promega). For the nuclear receptor assays, prototype ligands were used at the following concentrations: Calcitriol for VDR (100 nM), GW3965 for LXRα and LXRβ (10 μM), 6-OCA for FXR (1 μM), fenofibrate for PPARα (10 μM), estradiol for ERα and β (10 μM), rosiglitazone for PPARγ (10 μM), 3-MC for AhR (5 μM), and TCPOBOP for mCAR (10 μM). Detailed descriptions and protocols are detailed in our recent publication. ,

HK-2 cells = test: CellTiter-Glo cytotoxicity assay, HK-2; assay type: cell-based, human; conditions: 24 h
Protocol: as §2

## NC(=O)c1cc(Cn2cc(-c3c(-c4ccc(Cl)cc4)nc4c(F)cc(F)cn34)nn2)ccc1Cl [Compound 11, 2-Chloro-5-((4-(2-(4-chlorophenyl)-6,8-difluoroimidazo[1,2-a]pyridin-3-yl)-1H-1,2,3-triazol-1-yl)methyl)-benzamide]
CAR3 variant
  activation of CAR3 variant: no significant activation
wild-type PXR LBD
  effect on wt-PXR-LBD/SRC1-VP16 two-hybrid: disrupted the wt-PXR-LBD/SRC1-VP16 interaction
HepG2 cells; HepG2, up to 30 μM
  effect on viability: no effects on viability
COS-1 cells; COS-1, up to 30 μM
  effect on viability: no effects on viability
[1]
  activation of obstructed mutated PXR LBD two-hybrid: Neither MI891 nor SPA70 activated the obstructed mutated PXR LBD
HepaRG cells; MI891 5 μM, MI1013 2 μM
  SULT1E1, SULT1B1, CYP7B1 and NR0B2 (SHP) gene expression: significantly downregulated
HepaRG cells; at 1 μM, no significant activation at higher concentrations
  CYP2B6 mRNA expression: slightly induced
HepaRG cells; alone or with rifampicin (5 μM), concentration-dependent
  CYP3A4 mRNA expression: suppressed both rifampicin-induced and basal (constitutive) CYP3A4 mRNA expression
LXRα
  agonistic or antagonistic activity on LXRα: no significant agonistic or antagonistic activities
HK-2 cells; HK-2, up to 30 μM
  effect on viability: no effects on viability

## N-(4-((1-(2,5-dimethoxyphenyl)-5-methyl-1H-1,2,3-triazol-4-yl)sulfonyl)phenyl)-3-(2-(2-(2-(4-(((2-(2,6-dioxopiperidin-3-yl)-1,3-dioxoisoindolin-4-yl)amino)methyl)-1H-1,2,3-triazol-1-yl)ethoxy)ethoxy)ethoxy)propenamide [Compound 36]
wild-type PXR LBD
  effect on wt-PXR-LBD/SRC1-VP16 two-hybrid: does not activate
HepG2 cells; HepG2, up to a concentration of 100 μM
  cytotoxicity/viability: nontoxic
COS-1 cells; COS-1, up to a concentration of 100 μM
  cytotoxicity/viability: nontoxic
[1]
  activation of obstructed mutated PXR LBD two-hybrid: does not activate
HepaRG cells; MI891 5 μM, MI1013 2 μM
  SULT1E1, SULT1B1, CYP7B1 and NR0B2 (SHP) gene expression: significantly downregulated
HepaRG cells; MI891 5 μM, SPA70 5 μM, MI1013 2 μM
  CYP3A4 gene expression: downregulated
HK-2 cells; HK-2, up to a concentration of 100 μM
  cytotoxicity/viability: nontoxic
